{
  "source": "patent US9957247B2",
  "about": "“SecA inhibitors and methods of making and using thereof” (Georgia State University Research Foundation, Inc., priority 2012, dated 2018)",
  "key": {"[1]": {"target": "BsSecA (Bacillus subtilis, UniProt P28366)", "sequence (P28366 whole entry)": "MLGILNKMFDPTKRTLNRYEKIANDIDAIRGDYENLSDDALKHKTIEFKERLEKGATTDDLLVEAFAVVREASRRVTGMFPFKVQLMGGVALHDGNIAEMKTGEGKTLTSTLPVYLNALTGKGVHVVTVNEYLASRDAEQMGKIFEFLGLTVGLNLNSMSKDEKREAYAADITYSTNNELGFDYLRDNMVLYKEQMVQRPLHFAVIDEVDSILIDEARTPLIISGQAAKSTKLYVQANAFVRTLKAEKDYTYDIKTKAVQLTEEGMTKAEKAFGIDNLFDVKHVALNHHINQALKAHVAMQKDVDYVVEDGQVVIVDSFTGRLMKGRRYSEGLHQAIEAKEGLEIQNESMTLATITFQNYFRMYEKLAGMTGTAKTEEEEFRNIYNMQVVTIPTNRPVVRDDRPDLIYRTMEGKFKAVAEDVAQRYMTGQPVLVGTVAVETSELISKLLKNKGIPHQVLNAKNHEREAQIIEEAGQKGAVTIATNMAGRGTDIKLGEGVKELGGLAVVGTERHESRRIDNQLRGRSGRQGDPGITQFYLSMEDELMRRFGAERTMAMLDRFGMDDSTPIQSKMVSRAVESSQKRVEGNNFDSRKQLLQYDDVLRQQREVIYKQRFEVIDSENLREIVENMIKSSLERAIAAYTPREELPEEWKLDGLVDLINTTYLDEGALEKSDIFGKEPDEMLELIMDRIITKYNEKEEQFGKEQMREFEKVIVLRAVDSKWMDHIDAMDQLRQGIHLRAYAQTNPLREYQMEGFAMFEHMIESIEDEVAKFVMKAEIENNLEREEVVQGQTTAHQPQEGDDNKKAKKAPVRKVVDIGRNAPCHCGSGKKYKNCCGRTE", "assay": "biochemical", "type": "biochemical, B. subtilis"}, "[2]": {"target": "EcSecA N68 (Escherichia coli, UniProt P10408)", "sequence (P10408 1-610)": "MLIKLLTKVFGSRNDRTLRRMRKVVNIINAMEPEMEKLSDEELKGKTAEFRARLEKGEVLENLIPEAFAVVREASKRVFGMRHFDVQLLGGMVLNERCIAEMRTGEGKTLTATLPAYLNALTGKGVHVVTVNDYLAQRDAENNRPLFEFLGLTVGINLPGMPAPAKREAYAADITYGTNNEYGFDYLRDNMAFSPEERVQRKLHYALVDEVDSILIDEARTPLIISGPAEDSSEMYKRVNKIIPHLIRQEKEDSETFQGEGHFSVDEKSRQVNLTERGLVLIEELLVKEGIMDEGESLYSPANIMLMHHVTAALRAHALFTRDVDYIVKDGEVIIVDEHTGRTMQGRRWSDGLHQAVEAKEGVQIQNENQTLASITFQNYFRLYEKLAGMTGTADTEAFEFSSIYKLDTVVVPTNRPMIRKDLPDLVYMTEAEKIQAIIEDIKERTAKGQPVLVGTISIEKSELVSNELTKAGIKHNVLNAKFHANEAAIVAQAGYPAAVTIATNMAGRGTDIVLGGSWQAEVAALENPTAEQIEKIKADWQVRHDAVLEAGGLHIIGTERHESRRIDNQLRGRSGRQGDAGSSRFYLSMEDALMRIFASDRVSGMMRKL", "assay": "biochemical", "type": "biochemical, E. coli"}, "[3]": {"target": "T1, EcSecA (Escherichia coli, UniProt P10408)", "assay": "biochemical", "design": "species or system E. coli", "conditions": "IC50, Intrinsic ATPase, Table 1, full-length EcSecA"}, "[4]": {"target": "MtbSecA (Mycobacterium tuberculosis, UniProt P9WGP5)", "sequence (P9WGP5 whole entry)": "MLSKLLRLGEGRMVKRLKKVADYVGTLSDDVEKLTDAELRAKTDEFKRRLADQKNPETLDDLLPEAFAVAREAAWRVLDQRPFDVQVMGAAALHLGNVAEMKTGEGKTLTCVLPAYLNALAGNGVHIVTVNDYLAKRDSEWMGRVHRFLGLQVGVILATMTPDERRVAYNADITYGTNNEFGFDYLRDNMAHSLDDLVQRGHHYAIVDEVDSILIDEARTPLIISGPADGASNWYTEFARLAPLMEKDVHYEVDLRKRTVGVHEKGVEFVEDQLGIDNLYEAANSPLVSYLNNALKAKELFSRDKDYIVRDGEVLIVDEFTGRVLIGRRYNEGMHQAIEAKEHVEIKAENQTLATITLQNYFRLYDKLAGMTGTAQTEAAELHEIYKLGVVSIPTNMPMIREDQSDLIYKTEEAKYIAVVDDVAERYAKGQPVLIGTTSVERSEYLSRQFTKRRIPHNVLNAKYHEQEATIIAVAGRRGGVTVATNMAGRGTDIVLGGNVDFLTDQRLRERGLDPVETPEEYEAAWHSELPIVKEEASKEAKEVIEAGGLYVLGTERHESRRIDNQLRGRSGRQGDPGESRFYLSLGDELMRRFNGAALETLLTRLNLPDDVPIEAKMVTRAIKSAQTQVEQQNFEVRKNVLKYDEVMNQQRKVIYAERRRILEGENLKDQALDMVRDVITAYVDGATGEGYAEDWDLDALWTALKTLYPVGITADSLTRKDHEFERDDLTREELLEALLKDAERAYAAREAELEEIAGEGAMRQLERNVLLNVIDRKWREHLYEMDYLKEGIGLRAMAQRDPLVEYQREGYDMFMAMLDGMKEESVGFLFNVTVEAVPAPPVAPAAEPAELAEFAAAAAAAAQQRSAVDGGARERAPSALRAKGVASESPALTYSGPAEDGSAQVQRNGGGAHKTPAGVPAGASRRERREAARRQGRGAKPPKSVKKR", "assay": "cell-based"}, "[5]": {"target": "SpSecA (Streptococcus pyogenes, UniProt Q99Y96)", "sequence (Q99Y96 whole entry)": "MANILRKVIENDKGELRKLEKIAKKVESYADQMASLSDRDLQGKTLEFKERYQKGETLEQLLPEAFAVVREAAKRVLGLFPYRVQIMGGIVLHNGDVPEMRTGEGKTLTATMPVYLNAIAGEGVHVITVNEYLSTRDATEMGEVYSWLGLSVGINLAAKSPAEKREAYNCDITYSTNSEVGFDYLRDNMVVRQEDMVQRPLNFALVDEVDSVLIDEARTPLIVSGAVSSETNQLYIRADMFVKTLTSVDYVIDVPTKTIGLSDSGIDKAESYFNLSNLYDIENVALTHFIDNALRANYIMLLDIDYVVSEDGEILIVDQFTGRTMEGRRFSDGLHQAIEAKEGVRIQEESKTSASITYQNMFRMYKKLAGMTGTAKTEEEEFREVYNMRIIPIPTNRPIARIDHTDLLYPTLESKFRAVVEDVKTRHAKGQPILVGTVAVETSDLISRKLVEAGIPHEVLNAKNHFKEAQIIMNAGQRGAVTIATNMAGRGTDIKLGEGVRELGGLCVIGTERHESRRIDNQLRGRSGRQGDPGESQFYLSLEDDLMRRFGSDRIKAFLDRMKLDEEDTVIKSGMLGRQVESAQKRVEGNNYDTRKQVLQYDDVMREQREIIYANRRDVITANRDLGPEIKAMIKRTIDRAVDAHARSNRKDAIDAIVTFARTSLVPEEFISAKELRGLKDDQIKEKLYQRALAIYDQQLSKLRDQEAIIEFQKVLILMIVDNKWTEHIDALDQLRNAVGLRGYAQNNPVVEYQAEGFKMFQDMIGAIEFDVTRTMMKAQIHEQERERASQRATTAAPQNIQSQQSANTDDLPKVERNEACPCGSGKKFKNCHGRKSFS", "type": "cell-based", "conditions": "read-out: IC50, Ion Channel activity, SpSecA"}, "[6]": {"system": "B. anthracis Sterne", "assay": "microbe, parasite or virus in culture", "type": "cell-based", "conditions": "Bacillus anthracis, read-out: Bacteriostatic MIC95, B. anthracis Sterne"}, "[7]": {"system": "secretion of α-hemolysin, enterotoxin B and TSST-1 by S. aureus Mu50", "type": "cell-based"}, "[8]": {"target": "T2, SaSecA1 (Staphylococcus aureus, UniProt O06446)", "T2 sequence (O06446 1-843)": "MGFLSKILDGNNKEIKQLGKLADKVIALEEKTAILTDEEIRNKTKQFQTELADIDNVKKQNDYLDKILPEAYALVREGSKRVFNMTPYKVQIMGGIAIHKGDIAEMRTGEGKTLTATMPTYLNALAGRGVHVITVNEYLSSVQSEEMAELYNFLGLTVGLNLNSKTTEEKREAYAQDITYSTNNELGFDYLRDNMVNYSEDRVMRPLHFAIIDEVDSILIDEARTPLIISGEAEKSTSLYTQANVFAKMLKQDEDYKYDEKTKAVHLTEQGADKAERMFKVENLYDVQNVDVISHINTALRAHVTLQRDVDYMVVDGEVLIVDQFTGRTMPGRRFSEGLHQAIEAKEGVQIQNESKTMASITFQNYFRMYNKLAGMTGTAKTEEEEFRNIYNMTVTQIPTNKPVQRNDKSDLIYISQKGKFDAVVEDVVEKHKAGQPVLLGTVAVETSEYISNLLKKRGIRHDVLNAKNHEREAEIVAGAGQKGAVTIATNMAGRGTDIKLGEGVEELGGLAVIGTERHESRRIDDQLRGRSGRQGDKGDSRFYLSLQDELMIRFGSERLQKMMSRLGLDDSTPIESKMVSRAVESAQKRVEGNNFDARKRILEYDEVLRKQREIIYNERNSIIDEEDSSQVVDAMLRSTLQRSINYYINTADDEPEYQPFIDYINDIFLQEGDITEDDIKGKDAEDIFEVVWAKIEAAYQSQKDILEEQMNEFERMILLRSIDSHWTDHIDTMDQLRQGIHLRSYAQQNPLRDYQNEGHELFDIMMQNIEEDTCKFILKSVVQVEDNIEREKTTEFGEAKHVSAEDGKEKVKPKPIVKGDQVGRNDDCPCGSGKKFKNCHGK", "conditions": "read-out: IC50, ATPase activity, SaSecA1; Table 7"}, "[9]": {"target": "T1, EcSecA", "assay": "cell-based"}, "[10]": {"target": "T2, SaSecA1", "assay": "cell-based"}, "[11]": {"target": "T1, EcSecA", "assay": "biochemical", "conditions": "IC50, Translocation ATPase, Table 1"}, "[12]": {"target": "T1, EcSecA", "assay": "biochemical", "conditions": "IC50, Protein Translocation, Table 1"}, "[13]": {"system": "S. aureus Mu50", "assay": "Bactericidal effect, S. aureus Mu50", "conditions": "9 μg/ml, 1 hour at 37° C., FIG. 5"}, "[14]": {"system": "S. aureus 6538", "assay": "Bactericidal effect, S. aureus 6538", "conditions": "9 μg/ml, 1 hour at 37° C., FIG. 5"}, "[15]": {"system": "S. aureus Mu3", "assay": "Bacteriostatic effect, S. aureus Mu3", "conditions": "Staphylococcus aureus, MU3, read-out: Bacteriostatic effect, MIC, S. aureus Mu3"}, "[16]": {"system": "S. aureus Mu50", "assay": "Bacteriostatic effect, S. aureus Mu50", "conditions": "for MIC: Staphylococcus aureus"}, "[17]": {"system": "S. aureus 6538", "assay": "Bacteriostatic effect, S. aureus 6538", "conditions": "Staphylococcus aureus, 6538, read-out: Bacteriostatic effect, MIC, S. aureus 6538"}},
  "note": "pIC50: −log10 of the molar value. Read-outs that look alike come from different tables or passages of the source.",
  "data": [
    {"smiles": "CCCCCCC1c2ccc(O)cc2Oc2cc(O)ccc21", "note": "[SCA-50]", "values": [
      {"measurement": "pIC50", "setting": "[1]", "result": 4.48},
      {"measurement": "pIC50", "setting": "[2]", "result": 5.40},
      {"measurement": "pIC50", "setting": "[3]", "result": 4.22},
      {"measurement": "pIC50", "setting": "[4]", "result": 5.52},
      {"measurement": "pIC50", "setting": "[5]", "result": 5.72},
      {"measurement": "MIC", "setting": "[6]", "result": 1.7, "unit": "µg/mL"},
      {"measurement": "Amount of α-hemolysin, enterotoxin B, and TSST-1 in the supernatant", "setting": "[7]", "result": "significantly decreased"},
      {"measurement": "pIC50", "setting": "[8]", "result": 4.70},
      {"measurement": "pIC50", "setting": "[9]", "result": 5.64},
      {"measurement": "pIC50", "setting": "[10]", "result": 5.96},
      {"measurement": "pIC50", "setting": "[10]; IC50, Ion-channel activity, SaSecA1, Table 7", "result": 5.96},
      {"measurement": "pIC50", "setting": "[11]", "result": 4.22},
      {"measurement": "pIC50", "setting": "[12]", "result": 4.42},
      {"measurement": "Bactericidal activity, log numbers killed, S. aureus Mu50", "setting": "[13]", "result": "more than 3 log numbers"},
      {"measurement": "Bactericidal activity, log numbers killed, S. aureus 6538", "setting": "[14]", "result": 2, "unit": "log numbers"},
      {"measurement": "MIC", "setting": "[15]", "result": 3.7, "unit": "µg/mL"},
      {"measurement": "MIC fold less than the MIC of ampicillin, kanamyin, erythromycin, and rifampicin", "setting": "[16]; S. aureus Mu50", "result": 250, "unit": "fold"},
      {"measurement": "MIC", "setting": "[16]; MU50, read-out: Bacteriostatic MIC95, S. aureus Mu50, Table 2", "result": 2.4, "unit": "µg/mL"},
      {"measurement": "MIC", "setting": "[16]; MU50, read-out: Bacteriostatic effect MIC, S. aureus Mu50, Table 10 and Example 4", "result": 4, "unit": "µg/mL"},
      {"measurement": "MIC", "setting": "[16]; MU50, read-out: Bacteriostatic effect, MIC, S. aureus Mu50, Table 8", "result": 3.7, "unit": "µg/mL"},
      {"measurement": "MIC", "setting": "[16]; MU50, read-out: MIC95 against drug resistant S. aureus Mu50", "result": 2.4, "unit": "µM"},
      {"measurement": "Bacteriostatic effect MIC, S. aureus Mu50", "setting": "[16]; Table 10 and text of Example 4", "result": 3.7, "unit": "µg/mL"},
      {"measurement": "MIC", "setting": "[17]", "result": 3.7, "unit": "µg/mL"}
    ]}
  ]
}
